Values joined by “and” are separate entries in the source; they are usually repeats but may differ in a detail not shown here. Equal entries are not always repeated.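 All cell lines were grown in 96-well plates and treated with compound for 48 hours. GI50: concentration for 50% inhibition of growth.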 Active and inactive are the calls of the source. Cut-off read from the data, not from the text of the source: active = GI50 up to about 1.1 µM and inactive = higher.
Key:
Experiment in all cases: NCI tumour cell line growth inhibition, 48 h
[1] = system: TK-10
[2] = system: SK-OV-3
[3] = system: SF-268
[4] = system: SW-620
[5] = system: NCI-H522
[6] = system: DU-145
[7] = system: HT-29
[8] = system: IGROV-1
[9] = system: ACHN
[10] = system: EKVX
[11] = system: SNB-75
[12] = system: SF-295
[13] = system: T47D
[14] = system: M14
[15] = system: MCF7
[16] = system: RPMI-8226
[17] = system: HOP-92
[18] = system: HL-60
[19] = system: K562

CC(=O)OCC1OC(n2c(N)c(C#N)c(C)c(C#N)c2=S)C(OC(C)=O)C(OC(C)=O)C1OC(C)=O (configuration not stated)
GI50 [1]: > 100 µM (inactive)
GI50 [2]: > 100 µM (inactive)
GI50 [3]: > 100 µM (inactive)
GI50 [4]: > 100 µM (inactive)
GI50 [5]: > 100 µM (inactive)
GI50 [6]: > 100 µM (inactive)
GI50 [7]: > 100 µM (inactive)
GI50 [8]: > 100 µM (inactive)
GI50 [9]: > 100 µM (inactive)
GI50 [10]: > 100 µM (inactive)
GI50 [11]: > 100 µM (inactive)
GI50 [12]: > 100 µM (inactive)
GI50 [13]: > 100 µM (inactive)
GI50 [14]: 46.3 µM (inactive) and 80.9 µM (inactive)
GI50 [15]: > 100 µM (inactive)
GI50 [16]: > 100 µM (inactive)

CC1(C)OC(=O)C(=Cc2ccc([N+](=O)[O-])s2)C(=O)O1
GI50 [1]: 17.3 µM (inactive)
GI50 [2]: 25.5 µM (inactive)
GI50 [3]: 14.7 µM (inactive)
GI50 [17]: 21.1 µM (inactive)
GI50 [4]: 1.94 µM (inactive)
GI50 [6]: 15.8 µM (inactive)
GI50 [18]: 2.49 µM (inactive)
GI50 [7]: 13.4 µM (inactive)
GI50 [9]: 13.7 µM (inactive)
GI50 [10]: 17.1 µM (inactive)
GI50 [12]: 15.7 µM (inactive)
GI50 [13]: 14 µM (inactive)
GI50 [14]: 12.3 µM (inactive)
GI50 [15]: 12.7 µM (inactive)
GI50 [16]: 8.32 µM (inactive)

CCCCC(Sc1cc(Cl)c(C)cc1S(=O)(=O)Nc1nc(N)n[nH]1)C(=O)OC (configuration not stated)
GI50 [1]: > 10 µM (inactive)
GI50 [2]: > 10 µM (inactive)
GI50 [3]: > 10 µM (inactive)
GI50 [19]: > 10 µM (inactive)
GI50 [4]: > 10 µM (inactive)
GI50 [5]: > 10 µM (inactive)
GI50 [6]: > 10 µM (inactive)
GI50 [18]: > 10 µM (inactive)
GI50 [7]: > 10 µM (inactive)
GI50 [8]: > 10 µM (inactive)
GI50 [9]: > 10 µM (inactive)
GI50 [10]: > 10 µM (inactive)
GI50 [11]: > 10 µM (inactive)
GI50 [12]: > 10 µM (inactive)
GI50 [13]: > 10 µM (inactive)
GI50 [14]: > 10 µM (inactive)
GI50 [15]: > 10 µM (inactive)
GI50 [16]: > 10 µM (inactive)

S=C(N/N=C/c1ccccn1)N1CCCCC1
GI50 [1]: 0.0205 µM (active)
GI50 [2]: < 0.01 µM (active)
GI50 [3]: < 0.0178 µM (active)
GI50 [17]: 0.212 µM (active)
GI50 [19]: < 0.01 µM (active)
GI50 [4]: < 0.0122 µM (active)
GI50 [6]: 0.243 µM (active)
GI50 [18]: < 0.01 µM (active)
GI50 [7]: < 0.01 µM (active)
GI50 [8]: < 0.01 µM (active)
GI50 [9]: < 0.01 µM (active)
GI50 [10]: 0.07 µM (active)
GI50 [11]: 0.0315 µM (active)
GI50 [12]: 0.121 µM (active)
GI50 [13]: < 0.01 µM (active)
GI50 [14]: < 0.01 µM (active)
GI50 [15]: < 0.01 µM (active)
GI50 [16]: < 0.01 µM (active)

COC1CC(n2ccc(=O)[nH]c2=O)OC1CO (configuration not stated)
GI50 [2]: > 100 µM (inactive)
GI50 [3]: > 100 µM (inactive)
GI50 [17]: > 100 µM (inactive)
GI50 [19]: > 100 µM (inactive)
GI50 [4]: > 100 µM (inactive)
GI50 [5]: > 100 µM (inactive)
GI50 [6]: > 100 µM (inactive)
GI50 [7]: > 100 µM (inactive)
GI50 [8]: > 100 µM (inactive)
GI50 [9]: > 100 µM (inactive)
GI50 [10]: > 100 µM (inactive)
GI50 [12]: > 100 µM (inactive)
GI50 [13]: > 100 µM (inactive)
GI50 [14]: > 100 µM (inactive)
GI50 [15]: < 0.01 µM (active)

Clc1ccc(OCc2nnc(COc3ccc(OCc4nnc(COc5ccc(Cl)cc5Cl)o4)c(Cl)c3)o2)c(Cl)c1
GI50 [1]: 76 µM (inactive)
GI50 [3]: 23.5 µM (inactive)
GI50 [17]: 7.48 µM (inactive)
GI50 [19]: 24.3 µM (inactive)
GI50 [4]: 70.1 µM (inactive)
GI50 [5]: 18.1 µM (inactive)
GI50 [6]: 71.3 µM (inactive)
GI50 [18]: 23.1 µM (inactive)
GI50 [7]: 27.4 µM (inactive)
GI50 [8]: 17.7 µM (inactive)
GI50 [9]: 40.6 µM (inactive)
GI50 [10]: 13.6 µM (inactive)
GI50 [12]: 33.3 µM (inactive)
GI50 [13]: 78.3 µM (inactive)
GI50 [14]: 76.4 µM (inactive)
GI50 [15]: 32.1 µM (inactive)
GI50 [16]: 17.3 µM (inactive)

CC1=NN(c2ccccc2)C(=O)/C1=C/c1ccc(O)cc1
GI50 [1]: > 100 µM (inactive)
GI50 [2]: > 100 µM (inactive)
GI50 [3]: > 100 µM (inactive)
GI50 [17]: > 100 µM (inactive)
GI50 [19]: > 100 µM (inactive)
GI50 [4]: > 100 µM (inactive)
GI50 [6]: > 100 µM (inactive)
GI50 [18]: > 100 µM (inactive)
GI50 [7]: > 100 µM (inactive)
GI50 [8]: > 100 µM (inactive)
GI50 [9]: > 100 µM (inactive)
GI50 [10]: > 100 µM (inactive)
GI50 [12]: > 100 µM (inactive)
GI50 [13]: > 100 µM (inactive)
GI50 [14]: > 100 µM (inactive)
GI50 [15]: > 100 µM (inactive)
GI50 [16]: 61.8 µM (inactive)

Cc1ccc(C(=O)Nc2ccc(CP(=O)(O)O)cc2)cc1NC(=O)Nc1cc(C(=O)Nc2ccc(CP(=O)(O)O)cc2)ccc1C
GI50 [1]: > 100 µM (inactive)
GI50 [2]: > 100 µM (inactive)
GI50 [3]: > 100 µM (inactive)
GI50 [4]: > 100 µM (inactive)
GI50 [5]: > 100 µM (inactive)
GI50 [6]: > 100 µM (inactive)
GI50 [18]: > 100 µM (inactive)
GI50 [7]: > 100 µM (inactive)
GI50 [8]: > 100 µM (inactive)
GI50 [10]: > 100 µM (inactive)
GI50 [11]: > 100 µM (inactive)
GI50 [12]: > 100 µM (inactive)
GI50 [13]: > 100 µM (inactive)
GI50 [14]: > 100 µM (inactive)
GI50 [15]: > 100 µM (inactive)
GI50 [16]: > 100 µM (inactive)
